Reference: US20240024216A1, “METHODS AND MATERIALS FOR TREATING HAIR LOSS” (The Penn State Research Foundation, priority 2021, published 2024)

Columns and labels:
C57BL/6 mice = experiment: Hair regrowth after dorsal hair removal in mice; format: in vivo
Method: Wild-type C57BL/6 mice (7-8 weeks old) were placed in the lateral decubitus position on a sterile paper sheet after anesthesia using intraperitoneal injection of ketamine (60 mg/kg) and xylazine (4 mg/kg). Sterile surgical instruments (autoclaved) were used during dorsal hair removal. The skin was prepared for hair removal on the dorso-lateral skin (from neck to tail) by shaving with a mechanical shaver, and then hair removal cream (Nair) was placed on the skin for 30-60 seconds. Hair was removed completely by gently wiping the skin with cotton balls soaked in warm water and disinfected using 70% ethanol wipes and betadine 3 times.
After dorsal hair removal, mice were placed in a clean cage on the heating pad for 30 minutes or until recovery. […]
At day 14, the backs of the mice were photographed with a digital camera, to evaluate the darkening of skin color. […] In morphological observation (FIG. 1A and FIG. 1), hair growth area was determined as a percentage after photographing hair growth state on the backs of mice and observation was conducted after hair removal at day 0 and after 4-AP treatment (daily systemic) at day 14. […] The level of hair regrowth/pigmentation was quantified by the intensity of the darkness of the back skin in the same area. […]

[1] = tested on: human foreskin primary keratinocytes; experiment: Scratch wound healing migration assay, primary keratinocytes; format: cell-based
Method: Keratinocytes isolation, culture conditions and characterization—The isolated epidermis was placed in a petri dish containing HEPES buffer for 10 minutes at room temperature, then treated with trypsin at 37° C. until the epidermis became loose and medium cloudy due to keratinocytes release. The cloudy medium was collected and trypsin activity neutralized using fetal bovine serum (FBS) in 1:1 ratio. The epidermis suspended keratinocytes were centrifuges at 1500 rpm for 5 minutes. The pellet resuspended in KGM-GOLD keratinocytes medium (Lonza KGM gold and supplements, Catlog No. 00192151 and 00192152). The isolated foreskin cultured on a culture dish and placed at 37° C. in 5% CO2 incubator for 1-2 days to allow keratinocytes to adhere. Adhere keratinocytes were continued incubation in KGM-Gold medium until cells reach about 80% confluent.
Keratinocytes/Schwann cells/fibroblasts (7×10^4 cells/well keratinocytes and 3.5×10^4 cells/well of SCs and FBs) with their respective medium were seeded on pre-coated either with collagen-I/PLL/no 96-well ImageLock microplate for 6 hours (Incucyte-sartorius plate, Cat log 4379). For the drug treatment cells were pretreated with 4-AP prior to coating for 16-18 hours. Next, the wound scratch was created using IncuCyte automated system (Essen BioScience). After scratches the cells washed with PBS and the respective cells medium was added with or without 1 mM of 4-AP. The plate was incubated in Incucyte automated imaging system, wound healing and cells migration was monitored by time-lapse photography capturing every hour from 0 to 42 hours. The relative area of wound size and cells migration at each time point was analyzed using IncuCyte™ Scratch Wound Cell Migration Software Module (Essen BioScience) and the percent of wound healing was calculated from the area measured after scratching relative to the basal area as expressed in pixels.
Indirect immunofluorescence was used to identify, characterize and to analyze the proliferation after 4-AP treatment. […]

[2] = tested on: keratinocytes co-cultured with fibroblasts (10:1); experiment: Co-culture scratch assay, keratinocytes with fibroblasts; format: cell-based, human; conditions: measured at 15 hours; 72% in non-treated
Method: To determine the influence of Schwann cells and fibroblast on keratinocytes migration and proliferation wound healing scratch assay was conducted. The co-culture experiment performed in Keratinocytes to either Schwann cells or fibroblasts in a ratio of 10:1 with same proposition of their respective medium were seeded on 96-well ImageLock microplate for 6 hours and the wells were pre-coated with collagen-I plate. For the drug treatment cells were pretreated with 4-AP prior to coating for 16-18 hours. Next, the wound scratch was created and treated cells with and without 4-AP in medium. Imaged for every hour until 24 hour and analyzed for percent of closure as described above procedure.

Compound: Nc1ccncc1 [4-AP, 4-aminopyridine]
- number of hair follicles (H&E transverse sections) (C57BL/6 mice; day 14, compared with saline treated mice): increased
- hair regrowth (C57BL/6 mice; day 14 after hair removal, systemic ip 10-50 μg/daily): around 50%
- time of complete scratch closure ([1]; 1 mM 4-AP, control closed at 32 hours): 18 h
- SOX10 and NGF expression in keratinocytes ([1]; 4-AP treated vs no treatment): both increased
- expression of keratins associated with keratinocyte differentiation (K10) ([1]; 4-AP treated vs no treatment): did not increase
- scratch closure [2]: 93%
